The values below come from patent US9487551B2, “Small molecule compounds that control mammal-pathogenic nematodes” (California Institute of Technology, priority 2011, dated 2016).

One assay concerns C. elegans. Description: Ascaroside function (Table 12). Format: in vivo, Caenorhabditis elegans. To be noted: listed = has this function. A digest of the protocol:
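Individual ascarosides and ascaroside blends were given to the nematodes, and their effect on nematode behavior was scored. A very strong behavioral effect was rated "strong."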

The subject of assay [1] is Several of the tested nematode species. Nature of the assay: Retention assay. Format: in vivo. The following applies: 1 nM, 1 μM and 1 mM tested. On the procedure: (§1) OP50 E. coli was grown on a standard 5 cm agar plate (made with standard Nematode Growth Medium). The bacterial lawn was 16 mm in diameter and was grown overnight at 20° C. before being used in trials. Two 4 mm spots (0.6 μL) were placed on opposite sides of the bacterial lawn (using a transparent template to guide spot placement), and several minutes elapsed for the liquid to settle in before placing nematodes down on the assay. Recording began immediately upon worm placement. 0.6 μL of the control was placed on one side of the lawn, and 0.6 μL of the experimental cue was placed on the other side of the lawn, changing the location of the cue throughout trials between left/right and top/bottom to avoid bias.
(§2) Nematodes were isolated by gender at the L4 stage the day before being used in trials as developed adults. Worms were evenly divided and placed at two points equidistant from the foci of the scoring region. Trials were recorded for 20 minutes, and frames were collected for analysis at 1 frame per second. Results were averaged from at least three different trials. For every nematode species in this study, a different total number of worms (using water in both scoring regions) was tested to determine the minimum number of worms necessary for consistent unbiased results over a 20 minute trial. The total number of worms used in the multiple species assays depended on that species' optimal parameters. 10 worms were used for P. redivivus males and females, 20 worms were used for C. elegans males and O. dolichuridae males, and 14 worms were used for S. glaseri males. The Automated Software was used to compare worm occupancy in each scoring region over time, and the Chemotaxis Index (Bargmann et al., Cell 74:515-27 (1993), which is hereby incorporated by reference in its entirety) was adapted to score preference or avoidance to each ascaroside.
(§3) A video camera attached to the microscope produced a digital video stream, which was then analyzed. The ratio of the time the average worm spent in each region of interest was calculated for every trial. For ease of implementation, all worms in a single experiment were assumed to be roughly the same size. Thus worm pixels were counted instead of whole worms, allowing fractions of a worm in the region of interest to be taken into account. It also eliminated the need for a shape-based worm identification algorithm, and allowed each frame to be analyzed independently. A band-pass filter was applied to each frame to eliminate the effect of uneven lighting and also accentuate the worms against the background. The worm was then identified after thresholding the filtered image. Throughout each experiment, the locations and sizes of the regions of interest were known. Through the filtering described above, it is known which pixels are occupied by worms and which ones are not. Thus, the ratio of worm-pixels to all pixels inside the region of interest can be calculated to produce the worm-occupancy ratio. This calculation was done for every frame, giving a plot output of worm-occupancy ratio vs. time for each region.

The subject of the next assay is males. Nature of the assay: Bioassay of HPLC-purified peak. Format: in vivo. The following applies: retention time 9.7 minutes. On the procedure: A Thermo Finnigan LCQ Deca XP Max was used with electrospray ionization in positive ion mode in the 50-1000 AMU range. The Thermo Separation spectra HPLC system consisted of a P4000 quaternary pump, an AS 3000 auto sampler, and a UV 6000 diode array detector. The solvents were water with (a) 0.1% formic acid and (b) 90% acetonitrile-10% water with 10 mM ammonium formate. The column temperature was maintained at 60° C. and a solvent flow of 1.0 ml/min. The reversed phase column (PLRP-S Polymeric reversed phase column, 250×4.6 mmid, Varian Inc.) was eluted with a solvent composition starting with 90:10 (a,b) for 2 minutes, followed by a gradient to 5:95 in 20 minutes and an additional 5 minutes at 5:95. Ultraviolet absorption was monitored at 190 and 400 nm. Solvent flow between the ultraviolet detector and mass spectroscopy electrospray interface split 9:1 with a low-volume micro needle P450 splitter valve (Upchurch Scientific, Oak Harbor, Wash.), making it possible to obtain spectra of eluted compounds and simultaneously collect 90% of the injected material for bioassay. […] This was confirmed to be ascr#1 using NMR analysis.

Another assay has as its system Panagrellus redivivus. Nature of the assay: Ascaroside function (Table 12). The class given is in vivo. To be noted: listed = has this function. On the procedure:
(§4) Various ascarosides and ascaroside blends were administered to various nematodes described below (Table 12). […] A very strong result of affecting nematode behavior is designated in the table as “strong.”

The test system of another assay is S. glaseri. Description: Ascaroside function (Table 12). The class given is in vivo. The following applies: listed = has this function. On the procedure: as §4
Assay [2] relates to Heterorhabditis bacteriophora, H. zealandica, H. floridensis. Nature of the assay: Ascaroside function (Table 12). The following applies: entries without asterisk. The class given is in vivo, Heterorhabditis spp. On the procedure: (§5) Ascarosides ascr#10, ascr#16, ascr#18, ascr#20, and ascr#22 were detected in certain species of Meloidogyne plant parasitic nematodes (FIG. 83) and identified using high-resolution mass spectrometry (FIGS. 84-88).
as §4

For assay [3], the system named is Steinernema riobrave, S. diaprepesi, S carpocapse. Nature of the assay: Ascaroside function (Table 12). Format: in vivo, Steinernema spp. The following applies: listed = has this function. On the procedure:
as §4

The test system of a further assay is S. feltiae IJs. Nature of the assay: Dispersal assay. Format: in vivo. On the procedure: S. feltiae IJs were washed with MILLI-Q water three times and incubated in 6 cm petri dishes for […] with a small amount (4-5 ml) of MILLI-Q water. Nematodes were placed the following day on a 10.7 g/L agar with 1010 g/cm^2 gel strength (PhytoTechnology Lab. Shawnee Mission, Kans.). Nematode behavior was assayed on multiple plates with internal plate replicates to rule out the possibility that behavior was affected by plate composition. Approximately 300 IJs in 10 μl water were placed on an agar medium and the test compounds or extracts (1-2 μl) were placed into the nematode suspension. Upon absorption (˜15 minutes) of the liquid, the freely moving nematodes were video recorded for 5-10 minutes. Dispersal behavior is temperature and season dependent. During winter, the assay is effective at room temperature (22±1° C.). During summer, the assay requires a temperature controlled environment due to the effects on nematode behavior above 23° C.
Activity-guided fractionation was conducted as reported in Srinivasan et al., Nature 454:1115-18 (2008), which is hereby incorporated by reference in its entirety, with modifications. A total of 33 insect host cadavers (G. mellonella larvae) were placed into 70% EtOH and stored at −20° C. until extraction. […]

For another assay, the system named is S. feltiae. Description: Ascaroside function (Table 12). To be noted: listed = has this function. Format: in vivo, Steinernema feltiae. On the procedure: as §4
Assay [4] deals with Meloidogyne javanica, M. floridensis, M. incognita, M. hapla. Description: Ascaroside function (Table 12). Format: in vivo, Meloidogyne spp. On the procedure: as §5, §4
The test system of another assay is C. elegans males. Description: Retention assay. The class given is in vivo. On the procedure:
as §1, §2, §3

The test system of assay [5] is P. redivivus males and females. Description: Retention assay. The class given is in vivo. To be noted: only this concentration. On the procedure:
as §1, §2, §3

A further assay deals with S. glaseri males. Nature of the assay: Retention assay. Format: in vivo. To be noted: only this concentration. On the procedure:
as §1, §2, §3

Where [6] appears, read: entries with asterisk (predicted).

Marks after values point to notes of the source that are not given here.

On to `C[C@H](CCCCC(=O)O)O[C@@H]1O[C@@H](C)[C@H](O)C[C@H]1O` [ascr#1], for which the entries for the “Attract Males” value with C. elegans, in the assay on Panagrellus redivivus and in the assay on S. glaseri were “ascr#l”, “ascr#1” and “ascr#1”, respectively. Also, in the assay with C. elegans, the “Promote Dauer Formation” value is “ascr#1”. Further, in [1], the “preference for ascaroside-conditioned areas” value (“preference” below) is “preferred areas conditioned”. Besides, the “activity to males in the bioassay” value with males is given as “active to males”.

For the molecule `C[C@H](CCC(=O)O)O[C@@H]1O[C@@H](C)[C@H](O)C[C@H]1O` [ascr#9], the “Dispersal (of dauer larvae, infectious juveniles)” value (in assay [2]; in assay [3]; with S. feltiae; in assay [4] (entries without asterisk)) was “ascr#9” throughout. Besides, the “Attract Males” value in the assay with C. elegans and with Panagrellus redivivus was “ascr#9” throughout. For the same molecule, the “dispersal activity in combination with fractions B and C” value in the assay on S. feltiae IJs (ascr#9 40 pmol/μl, ascr#11 1.3 pmol/μL) was “restored the original dispersal activity”. Also, the “dispersal behavior of S. feltiae IJs” value in the assay with S. feltiae IJs (tested alone, physiologically relevant concentration) is listed as “did not have activity by themselves”. Also, the “preference” value in [1] is given as “preferred areas conditioned”. In addition, the “Repel Females/Herm.” value in [4] (entries without asterisk) is “ascr#9”.

As for `CC1O[C@@H](O[C@H](C)CCCCCCC(=O)O)C(O)C[C@H]1O` (some centres unmarked) [ascr#10], the “Attract Males” value in the assay on C. elegans, in the assay on Panagrellus redivivus and in the assay on S. glaseri was “ascr#10” throughout. For the same molecule, the “concentration of conditioned regions preferred” value in the assay on C. elegans males turned out to be 1 µM; in assay [5], 1 mM; in the assay with S. glaseri males it was 1 mM. Also, the “preference” value in assay [1] is on record as “preferred areas conditioned”. Further, in [4] (alone, in concert, and/or in concert with ascr#9 or other ascarosides), the “predicted function in Meloidogyne species” value is “act as dispersants and repellants”. For the same molecule, the “Dispersal (of dauer larvae, infectious juveniles)” value in assay [4] (setting [6]) is given as “ascr#10*”. Further, in assay [4] (setting [6]), the “Repel Females/Herm.” value is reported as “ascr#10*”.
